Molecules are shown by their SMILES. In brackets after ≈: the same amount, converted by molar mass.

The test system of the test is Tilletia foetida. In words: In vitro inhibition of germination of Tilletia foetida (wheat smut) spores on agar medium. Format: cell-based. The settings on record: Tilletia laevis, 10° C. in the dark, 8-9 days, tested at 5, 10, 25, 50, 100 and 150 ppm, spores germinated as percentage of control, read-out: Minimum inhibitory concentration (ppm) which reduces germination to <20% control. The procedure:
In vitro assays using compounds of the formula I were carried out as follows. An agar medium prepared from Difco "Bacto-Agar" and distilled water was sterilised in an autoclave. Aliquots of the test compounds in acetone solution were added to two duplicate samples of the medium to give final concentrations of 5, 10, 25, 50, 100 and 150 ppm, and the resulting solutions poured into sterilised petri dishes and inoculated with Tilletia foetida (wheat smut) from the kernels of infected wheat. […] The inhibition of germination due to the test compounds was then determined by estimating (microscope) the spores germinated as a percentage of control.
As to `CCOC(=O)c1c(N(CC)CC)cc(C)c(SC#N)c1Cl` [Compound 5], the MIC was 10 mg/L (≈ 30.6 µM).

For the compound `CCOC(=O)c1c(Cl)cc(C)cc1N(C)C` [Compound 1, Ethyl 6-chloro-4,N,N-trimethylanthranilate], the MIC stood at 25 mg/L (≈ 103 µM).

`CCOC(=O)c1c(N(C)C)cc(C)c(SC#N)c1Cl` [Compound 4, Ethyl 6-chloro-4,N,N-trimethyl-5-thiocyanoanthranilate]: the MIC was < 5 mg/L.

Regarding `CCOC(=O)c1c(N(C)C)cc(C)c([N+](=O)[O-])c1Cl` [Compound 6, Ethyl-6-chloro-4,N,N-trimethyl-5-nitroanthranilate], the MIC is < 5 mg/L.

In the case of `CCOC(=O)c1c(N(CC)CC)cc(C)c([N+](=O)[O-])c1Cl` [Compound 7], the MIC was determined as 25 mg/L (≈ 79.4 µM).

As for `CCOC(=O)c1c(Cl)c(Cl)c(C)c(Cl)c1N(C)C` [Compound 3, Ethyl 3,5,6-trichloro-4,N,N-trimethylanthranilate], the MIC amounted to 5 mg/L (≈ 16.1 µM).

For the compound `CCOC(=O)c1c(Cl)cc(C)cc1N(CC)CC` [R^1 = R^2 = R^3 = Et], the MIC was found to be 25 mg/L (≈ 92.7 µM).
